We go through three compounds from ChEMBL document CHEMBL1142484, “Design and synthesis of sulfoximine based inhibitors for HIV-1 protease” (Bioorg Med Chem Lett, 2008).

The target of the experiment is Protease (Human immunodeficiency virus 1, UniProt Q9YQ12). Put plainly: Inhibition of HIV1 protease.
Sequence of Protease (Q9YQ12 whole entry): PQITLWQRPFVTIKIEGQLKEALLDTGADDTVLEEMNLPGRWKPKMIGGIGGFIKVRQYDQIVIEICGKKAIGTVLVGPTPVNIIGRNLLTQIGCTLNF

In general, IC50 refers to the concentration that inhibits the measured activity by half. In turn, `CC(C)(C)NC(=O)[C@H]1CN(Cc2cccnc2)CCN1C[S+](=N)([O-])C[C@H](Cc1ccccc1)C(=O)N[C@@H]1c2ccccc2C[C@@H]1O` (stereo partly drawn) came in with an IC50 of 100 µM.
`O=C(N[C@H]1c2ccccc2C[C@H]1O)[C@H](Cc1ccccc1)CC(O)C[C@@H](Cc1ccccc1)C(=O)N[C@H]1c2ccccc2C[C@H]1O` showed an IC50 of 0.0006 µM. This lies in the sub-nanomolar range.
`CC(C)(C)NC(=O)C1CN(Cc2cccnc2)CCN1C[S+]([O-])C[C@H](Cc1ccccc1)C(=O)NC1c2ccccc2CC1O` (single isomer, unassigned): the midpoint of inhibition, the IC50, lay at 100 µM.
